Structures can show the parent of a compound that is named as a salt. Where two headings read alike, the source gives them in different places.
Columns and labels:
[1] = test system: intact rats; assay: Effect of hypouricemic agents on pharmacokinetics of intravenously administered d4-IS in intact rats; assay type: in vivo, Wistar rats; set-up: concentration or dose not given beside the values
[2] = test system: adenine-induced acute renal failure rats; assay: Effect of hypouricemic agents on pharmacokinetics of d4-IS in adenine-induced acute renal failure rats; assay type: in vivo, Wistar rats; settings: in words
Method: Wistar rats were orally administered 600 mg/kg of adenine, once daily for 5 days. One week after the last administration, urine samples were collected for 4 h. Furthermore, blood samples were obtained from the jugular vein under the isoflurane anesthesia. […] Creatinine level in the plasma and urine was measured using the U-3900 spectrophotometer (Hitachi High-Tech Science Corp., Tokyo, Japan) with the L-type Wako Creatinine F kit (Wako Pure Chemical Industries, Ltd., Osaka, Japan). Creatinine clearance (CLCRE) was calculated using the following equation: CLCRE = [urine creatinine level (mg/dl) × urine volume (ml/min)] / plasma creatinine level (mg/dl) / body weight (kg). […] Four days later, the rats were selected based on the weight and serum creatinine level, and used in the study. In the intact group, the rats were used 4 days after the urine and blood sampling.

[3] = Plasma concentration of hypouricemic agents in intact and adenine-induced acute renal failure rats; assay type: in vivo, Wistar rats; settings: Supplemental Fig. 2; in words
Method: Supplemental Fig. 1 Full-length blots/gels of renal expression of OAT1 (A/D), OAT3 (B/E), and ABCG2 (C/F) protein in intact and adenine-induced acute renal failure rats The chemiluminescence in blots and the proteins in gels were detected using ChemiDoc XRS Plus (Bio-Rad Laboratories, Inc.).
Supplemental Fig. 2 Plasma concentration of hypouricemic agents in intact rats and adenine-induced acute renal failure rats
Plasma drug concentration was measured using the same samples for measuring endogenous IS and d4-IS. Plasma samples were deproteinated with thrice volume of methanol and centrifuged at 1,000 × g for 10 min at 4°C. Drug concentrations were measured using the Alliance 2695 HPLC system (Waters Corporation. Milford, MA).

[4] = set-up: method as in Pharmaceuticals and Medical Devices Agency; settings: ref Pharmaceuticals and Medical Devices Agency, read-out: Cmax at clinical dose, cited from earlier work
[5] = set-up: method as in Pharmaceuticals and Medical Devices Agency; settings: ref Pharmaceuticals and Medical Devices Agency; cited from earlier work
[6] = test system: intact rats; assay: Effect of hypouricemic agents on endogenous IS pharmacokinetics in intact rats; settings: for Kidney IS concentration compared with control: endogenous IS, at 4 h; for Effect on plasma concentration of endogenous IS: in words
Method: Thirty minutes after drug administration, 0.3 mg/kg d^4-IS dissolved in saline was intravenously administered via the tail vein to all rats. Blood samples were obtained from the jugular vein at 0.083, 0.25, 0.5, 1, 2, and 4 h after d^4-IS administration using a heparinized needle and kept on ice, and then the kidney was isolated with the rats under isoflurane anesthesia. Plasma was obtained by centrifuging the blood samples at 1000 × g for 10 min at 4 °C. To prepare the kidney sample, 4-times volume of saline was added to the sample and homogenized.
Endogenous IS and d^4-IS were determined in these samples as previously described with slightly modifications[10]. Briefly, the plasma and kidney homogenates were deproteinized using the internal standard containing methanol. These samples were measured using a liquid chromatography-tandem mass spectrometry (LC–MS/MS) systems consisting of a Nexera X2 and a Prominence instrument (Shimadzu Corp., Kyoto, Japan) coupled with QTRAP4500 (AB SCIEX, LLC., Framingham, MA). Pharmacokinetic parameters (AUC0-4 hr, C0, V0, T1/2, and CLtot) were analyzed using the Phoenix WinNonlin 6.4 software (Certara, L.P., Princeton, NJ). Some pharmacokinetic parameters were calculated using the following equations, in which "IS" means endogenous IS or d^4-IS. CLR, plasma = (urine IS concentration × urine volume) / AUC0-4 hr. CLR, kidney = (urine IS concentration × urine volume) / (kidney IS concentration at 4 h × 4). Kp = kidney IS concentration at 4 h / plasma IS concentration at 4 h.

[7] = set-up: method as in PMID 29016645; settings: in humans; cited from earlier work

SMILES | Decrease of CLR, plasma of d4-IS compared with control [1] [%] | Decrease of CLtot of d4-IS compared with control [1] [%] | Effect on plasma concentration of d4-IS [2] | Plasma concentrations of the drugs in adenine-induced acute renal failure rats versus intact rats [3] | Cmax ([4]; mean concentration of q.i.d. administration, at a dose of 2 g, for 4 weeks) [µM] | fu (unbound fraction rate) [5] | Decrease of CLR, plasma of endogenous IS compared with control [6] [%] | Increase of AUC0-4 hr of endogenous IS compared with control [6] [%] | Kidney IS concentration compared with control [6] [times] | Effect on plasma concentration of endogenous IS [6] | Cmax ([4]; Cmax of q.d. administration, at a dose of 4 mg, for 1 weeks) [µM] | plasma protein binding ratio [7] [%] | Decrease of CLR, kidney of d4-IS compared with control [1] [%] | Decrease of CLR, kidney of endogenous IS compared with control [6] [%]
CCCN(CCC)S(=O)(=O)c1ccc(C(=O)O)cc1 [Probenecid] | 78 | 80 | moderate but significant increase | not lower than those in intact rats | 79 | 0.11 | 73 | 244 | 1.7 | significantly increased | – | – | – | –
O=C(c1cc(Cl)c(O)c(Cl)c1)N1CS(=O)(=O)c2ccccc21 [Dotinurad] | – | – | did not have any effect | – | – | 0.007 | – | – | – | did not have any effects | 1.2 | – | – | –
CCc1oc2ccccc2c1C(=O)c1cc(Br)c(O)c(Br)c1 [Benzbromarone] | 43 | 34 | – | not lower than those in intact rats | – | – | – | – | – | did not have any effects | – | – | – | –
O=S(=O)(O)Oc1c[nH]c2ccccc12 [IS, Indoxyl sulfate] | – | – | – | – | – | – | – | – | – | – | – | 93 | – | –
Cc1nc(-c2ccc(OCC(C)C)c(C#N)c2)sc1C(=O)O [Febuxostat] | 35 | 44 | – | not lower than those in intact rats | – | – | 39 | 85 | 15.1 | significantly increased | – | – | 94 | 93

Reference: paper PMC8012596, “Hypouricemic agents reduce indoxyl sulfate excretion by inhibiting the renal transporters OAT1/3 and ABCG2” (Scientific Reports, 2021)
